According to patent US20110124888A1, “STYRYLBENZOFURAN DERIVATIVES AS INHIBITORS FOR BETA-AMYLOID FIBRIL FORMATION AND PREPARATION METHOD THEREOF” (Korea Institute of Science and Technology, priority 2008, published 2011):

Columns and labels:
[1] = Pharmacokinetics test in mice (plasma); type: in vivo, ICR mice; settings: for AUC / Cmax / Tmax: ICR, mouse, plasma; for AUC / Cmax / Tmax / BA: mice; for AUC: n = 3; for AUC (in words) / bioavailability (in words): mice and rats, Tables 8 and 9; for BA: 2.5 mg/kg po vs 1.25 mg/kg iv
Experimental: (§1) 1) Test Animal and Administration of Test Compound
(§2) Three 7 week-old ICR mice (weight: about 30 g) and three 8 week-old SD rats (weight: about 250 g) were used per test group. A solution prepared by dissolving the compounds of Examples 9 and 17 in excipient (DMSO/Tween 20/saline: 0.1/0.6/2.3, v/v/v) were administered to each experimental animal. The test compound was orally administered in an amount of 10 mL per kg of body weight or intravenously administered in an amount of 5 mL per kg of body weight through the fine vein.
(§3) 2) Blood Concentration Test
(§4) At 30 min, 1 hr, 2 hr, 4 hr, 10 hr and 24 hr after oral administration of the test compounds, the blood was collected from periorbital veins into the tube containing heparin (1000 IU/mL, 3 μl) for the mice, and from jugular vein for rats. The blood sample was centrifuged at 12,000 rpm for 2 min to obtain plasma. The obtained plasma was kept in freezer at −80° C. until the analysis.
(§5) The sample was analyzed using LC/MSMS system under the following condition:
(§6) The sample was pretreated as follows:
(§7) 50 μL of plasma was placed in 2.0 mL of tube having a cap (Eppendorf Co.) and acidified by adding 20 μL of 0.1% formic acid thereto. An internal standard solution and 1 mL of ethyl acetate as an extract solvent were added to the resultant solution. The resultant solution was mixed using thermomixer (Eppendorf Co.) at 1400 rpm for 5 min, and then subjected to centrifuge (Eppendorf Co.). The supernatant was collected and concentrated at 35° C. using cyclone. The residue was re-dissolved in 50 μL of moblie phase and 5 μL of the resulting solution was injected into LC/MS and analyzed.
(§8) In Tables 8 and 9, “iv” refers to a intravenous injection; “po” refers to a per oral; “AUC plasma” refers to an area under the plasma level-time curve; “Cmax” refers to a maximum plasma concentration; “Tmax” refers to a time to reach Cmax, “BA” refers to a bioavailability (%) according to Equation 2 below; “AUC Brain” refers to a area under the brain tissue level-time curve; and “AUCBrain/AUCPlasma” refers to a passage rate of the test compound to the brain.
(§9) Bioavailability (%)=[(AUCpo/AUCiv)×(Doseiv/Dosepo)×100] Equation 2
(§10) wherein, AUCpo means an area under the blood concentration time curve (AUC) after the per oral administration, AUCiv means an AUC after the intravenous injection, Doseiv means an amount of the intravenous injection, and Dosepo means an amount of the per oral administration.

[2] = Pharmacokinetics test in rats (plasma); type: in vivo, SD rats; settings: for BA: 2.5 mg/kg po vs 1.25 mg/kg iv; for AUC / Cmax / Tmax: SD, rat, plasma; for AUC: n = 3
Experimental: as §1, §2, §3, §4, §5, §6, §7, §8, §9, §10

[3] = Passage test through the blood-brain barrier in mice (brain tissue); type: in vivo, ICR mice; settings: for Kp / Tmax: mouse; for Kp: brain; for Tmax / Cmax (brain): brain tissue
Experimental: as §1, §2
(§11) 2) Measurement of Concentration in Blood and Tissue (Simultaneous Test)
(§12) At 30 min, 1 hr, 2 hr, 4 hr, 10 hr and 24 hr after administration of test compound, the mice and rats were subjected to insufflations narcosis using isoflorane, followed by cutting the abdomen open. 1 mL of blood was collected from abdominal veins into the tube containing heparin (1000 IU/mL, 3 μl). The obtained blood sample was centrifuged at 12,000 rpm, for 2 min to obtain plasma. The obtained plasma was kept in freezer at −80° C. until the analysis.
(§13) (2) Organ Tissue-Sampling
(§14) The mice and rats from which the blood sample was obtained were subjected to bloodletting, and then, brain tissue of the mice and rats was collected. The brain tissue thus obtained was washed with physiological saline once or twice to remove blood. The weight of the brain tissue was measured after the removal of adipose tissue and peripheral tissue. 4% bovine serum albumin (BSA) solution diluted with 10-fold was added to the brain tissue. The resulting solution was subjected to homogenization using the homogenizer. The diluted homogenate thus obtained was placed in 2 ml of tube and was kept in freezer at −80° C. until the analysis. All of the treatments to the samples were performed in ice.
as §5, §6
as §7, with “plasma were” for “plasma was”, “5 min” for “5 min,”
as §8

[4] = Passage test through the blood-brain barrier in rats (brain tissue); type: in vivo, SD rats; settings: for Cmax (brain) / Tmax: brain tissue; for Tmax / Kp: SD, rat; for Kp: brain, read-out: AUCBrain/AUC Plasma
Experimental: as §1, §2, §11, §12, §13, §14, §5, §6
as §7, with “plasma were” for “plasma was”, “5 min” for “5 min,”
as §8

beta-amyloid 42 = beta-amyloid 42 (Homo sapiens, UniProt P05067); assay: Biochemical test: content of beta-amyloid 42 in hippocampus tissue of transgenic mice; type: in vivo; settings: for Reduction rate (%) of beta amyloid 42 content: hippocampus tissue, based on the content of beta amyloid 42 in the Tg group
Sequence of beta-amyloid 42 (P05067 672-713 limits assumed): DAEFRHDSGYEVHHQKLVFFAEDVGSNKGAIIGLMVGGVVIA

[5] = ICR (mice), SD (rats), mice and rats, Tables 8 and 9, read-out: passage ability through the blood-brain barrier compared with plasma
[6] = ICR, mice, 1.25 mg/kg, iv, read-out: AUCBrain/AUC Plasma
[7] = ICR, mice, 2.5 mg/kg, po, read-out: AUCBrain/AUC Plasma

Structure (SMILES)	AUC ([1]; 1.25 mg/kg, iv)	Cmax ([1]; 2.5 mg/kg, po)	Tmax ([1]; 2.5 mg/kg, po)	AUC ([1]; 2.5 mg/kg, po)	AUC (in words) [1]	bioavailability (in words) [1]	BA [1]	BA [2]	AUC ([2]; 1.25 mg/kg, iv)	Cmax ([2]; 2.5 mg/kg, po)	Tmax ([2]; 2.5 mg/kg, po)	AUC ([2]; 2.5 mg/kg, po)	Kp [3, 5]	Kp [3, 6]	Kp [3, 7]	Tmax ([3]; ICR, mice, 2.5 mg/kg, po)	AUC Brain ([3]; mice, 1.25 mg/kg, iv)	AUC Brain ([3]; mice, 2.5 mg/kg, po)	Cmax (brain) ([3]; mice, 2.5 mg/kg, po)	AUC Brain ([4]; 1.25 mg/kg, iv)	further results
CNc1ccc(C=Cc2cc3cc(OC)ccc3o2)cc1 [Compound 17, 5-methoxy-2-(4-methylaminostyryl)benzofuran]	237 ng·h/mL	96.5 ng/mL	0.83 h	326 ng·h/mL	high degree of AUC	superior bioavailability	68.8%	22.4%	1140 ng·h/mL	122 ng/mL	1.33 h	516 ng·h/mL	≥ 1	10.6	7.2	2 h	2525.45 ng·h/mL	2354.58 ng·h/mL	462.67 ng/mL	8740.33 ng·h/mL	AUC Brain ([4]; 2.5 mg/kg, po): 11237.67 ng·h/mL; Cmax (brain) ([4]; 2.5 mg/kg, po): 1406.67 ng/mL; Tmax ([4]; 2.5 mg/kg, po): 1.67 h; Kp ([4]; 1.25 mg/kg, iv): 7.6; Kp ([4]; 2.5 mg/kg, po): 21.8; melting point: 174 to 175 °C
COc1ccc2cc(C=Cc3ccc(N(C)C)cc3)oc2c1 [Compound 9, 6-methoxy-2-(4-dimethylaminostyryl)benzofuran]	503 ng·h/mL	172 ng/mL	0.83 h	646 ng·h/mL	high degree of AUC	superior bioavailability	64.2%	27.8%	1640 ng·h/mL	215 ng/mL	1.67 h	908 ng·h/mL	≥ 1	12.1	12.6	4 h	6101.86 ng·h/mL	8137.42 ng·h/mL	899.33 ng/mL	17939.63 ng·h/mL	AUC Brain ([4]; 2.5 mg/kg, po): 15241.92 ng·h/mL; Cmax (brain) ([4]; 2.5 mg/kg, po): 1309.00 ng/mL; Tmax ([4]; 2.5 mg/kg, po): 2 h; Kp ([4]; 1.25 mg/kg, iv): 11; Kp ([4]; 2.5 mg/kg, po): 16.8; Reduction rate (%) of beta amyloid 42 content (beta-amyloid 42; 30 mg/kg): 41%; Reduction rate (%) of beta amyloid 42 content (beta-amyloid 42; 100 mg/kg): 48%; reduction rate of beta-amyloid plague compared with tramiprosate (in words) (beta-amyloid 42; Table 13, 30 and 100 mg/kg): remarkable reduction rate of beta-amyloid plague in a dose-dependent manner
